According to ChEMBL document CHEMBL4138264, “Seco-Dendrobine-Type Alkaloids and Bioactive Phenolics from Dendrobium findlayanum” (J Nat Prod, 2018):
Calls of active or inactive are those of the source. The rule behind the calls is not given here. Peptide text beside a SMILES is read from it. * marks the point of attachment. Cbz = O=C(OCc1ccccc1)*

Legend:
MCF7 = assay: Cytotoxicity against human MCF7 cells assessed as reduction in cell viability after 48 hrs by MTS assay; format: functional, cell-based; conditions: MCF7, 48 h
SMMC-7721 = assay: Cytotoxicity against human SMMC7721 cells assessed as reduction in cell viability after 48 hrs by MTS assay; format: functional, cell-based; conditions: SMMC-7721, 48 h
SW480 = assay: Cytotoxicity against human SW480 cells assessed as reduction in cell viability after 48 hrs by MTS assay; format: functional, cell-based; conditions: SW480, 48 h
A549 = assay: Cytotoxicity against human A549 cells assessed as reduction in cell viability after 48 hrs by MTS assay; format: functional, cell-based; conditions: A549, 48 h
HL-60 = assay: Cytotoxicity against human HL60 cells assessed as reduction in cell viability after 48 hrs by MTS assay; format: functional, cell-based; conditions: HL-60, 48 h
[1] = Antioxidant activity assessed as DPPH radical scavenging activity at 25 ug/ml after 1 hr; format: functional
RAW264.7 [2] = assay: Antiinflammatory activity in mouse RAW264.7 cells assessed as reduction in LPS-induced NO production at 25 uM preincubated for 1 hr followed by LPS stimulation measured after 18 hrs by Griess assay; format: functional, cell-based
RAW264.7 [3] = assay: Inhibition of LPS-stimulated ROS production in mouse RAW264.7 cells at 25 ug/ml preincubated for 1 hr followed by LPS stimulation measured after 18 hrs by DCFH-DA probe based flow cytometry; format: functional, cell-based
[4] = Antioxidant activity assessed as DPPH radical scavenging activity at 50 uM after 1 hr; format: functional
RAW264.7 [5] = assay: Antiinflammatory activity in mouse RAW264.7 cells assessed as reduction in LPS-induced NO production at 25 ug/ml preincubated for 1 hr followed by LPS stimulation measured after 18 hrs by DAF-FMDA probe based flow cytometry; format: functional, cell-based
RAW264.7 [6] = assay: Antiinflammatory activity in mouse RAW264.7 cells assessed as reduction in LPS-induced NO production preincubated for 1 hr followed by LPS stimulation measured after 18 hrs by Griess assay; format: functional, cell-based

Row | SMILES | IC50 (MCF7) | IC50 (SMMC-7721) | IC50 (SW480) | IC50 (A549) | IC50 (HL-60) | Activity [1] | Activity (RAW264.7 [2]) | inhibition (RAW264.7 [3]) | Activity [4] | Activity (RAW264.7 [5]) | IC50 (RAW264.7 [6])
1 | CC(=O)O[C@H]1C(=O)[C@@]2(C)[C@H]([C@H](OC(=O)c3ccccc3)[C@]3(O)C[C@H](OC(=O)[C@H](O)[C@@H](NC(=O)c4ccccc4)c4ccccc4)C(C)=C1C3(C)C)[C@]1(OC(C)=O)CO[C@@H]1C[C@@H]2O [PACLITAXEL] | < 0.008 µM | < 0.008 µM | < 0.008 µM | < 0.008 µM | < 0.008 µM | – | – | – | – | – | –
2 | Cc1c(C)c2c(c(C)c1O)CCC(C)(C(=O)O)O2 (stereo unspecified) | – | – | – | – | – | 95.5% | – | – | – | – | –
3 | CC(C)[C@@H]1[C@H]2OC(=O)[C@@H]1[C@@H]1CC[C@@H]3CN(C)[C@H]2[C@@]31C | > 40 µM | > 40 µM | > 40 µM | > 40 µM | > 40 µM | – | inactive | – | – | – | –
4 | CC(C)C1=C(O)C(=O)[C@@]2(C)[C@@H]3CC[C@H]2[C@H]1C(=O)NC3 | > 40 µM | > 40 µM | > 40 µM | > 40 µM | > 40 µM | – | inactive | – | – | – | –
5 | COc1ccc(CCc2cc(OC)c(O[C@H](CO)[C@@H](O)c3ccc(O)c(OC)c3)c(OC)c2)cc1 | > 40 µM | > 40 µM | > 40 µM | > 40 µM | > 40 µM | – | inactive | Active | 27.6% | – | –
6 | COc1cc(CCc2ccc(O)cc2)cc(O)c1-c1c(OC)cc([C@@H]2OO[C@H]2CO)cc1OC | 19.4 µM | 34.4 µM | > 40 µM | 20.8 µM | 23.5 µM | – | – | Active | 37.6% | inactive | 21.4 µM
7 | COc1ccc(CCc2cc(O)c(-c3c(OC)cc([C@@H]4OO[C@H]4CO)cc3OC)c(OC)c2)cc1 | 4.7 µM | 5.1 µM | 5.3 µM | 4.4 µM | 2.3 µM | – | inactive | Active | 18.1% | – | –
8 | CC(C)[C@@H]1[C@@H]([C@@H]2CC[C@@H]3CN(C)C(=O)[C@@]32C)C(=O)O[C@H]1O | > 40 µM | > 40 µM | > 40 µM | > 40 µM | > 40 µM | – | inactive | – | – | – | –
9 | CC(C)C[C@@H](C=O)NC(=O)[C@H](CC(C)C)NC(=O)[C@H](CC(C)C)NC(=O)OCc1ccccc1 [MG-132] (Cbz-Leu-Leu-Leu-aldehyde) | – | – | – | – | – | – | – | – | – | – | 0.2 µM
10 | COC(=O)/C(=C(/C(=O)O)C(C)C)[C@@H]1CC[C@@H]2CN(C)C(=O)[C@@]21C | > 40 µM | > 40 µM | > 40 µM | > 40 µM | > 40 µM | – | inactive | – | – | – | –
11 | CC(C)C1=C(O)C(=O)[C@@]2(C)[C@@H]3CC[C@H]2[C@H]1C(=O)N(C)C3 | > 40 µM | > 40 µM | > 40 µM | > 40 µM | > 40 µM | – | inactive | – | – | – | –
12 | CC(C)[C@H]1[C@@H]2C(=O)O[C@H]1[C@@]1(O)N(C)C[C@H]3CC[C@@H]2[C@]31C | > 40 µM | > 40 µM | > 40 µM | > 40 µM | > 40 µM | – | inactive | – | – | – | –
13 | COc1ccc(CCc2cc(OC)c3c(c2)O[C@@H](c2ccc(O)c(OC)c2)[C@H](CO)O3)cc1 | > 40 µM | > 40 µM | > 40 µM | > 40 µM | > 40 µM | – | inactive | inactive | 9.56% | – | –
